Biological target: ALK2 (Homo sapiens (Human), UniProt Q04771)
Assay: ALK2 inhibition, LanthaScreen Eu Kinase Binding Assay (ThermoFisher Scientific / Life Technologies)
Details: read-out: Measured Ki (IC50) Value for Compounds: IC50
Description: Biochemical assays to measure the inhibitory effects of the compounds were performed by ThermoFisher Scientific (Life Technologies). ALK2 inhibition was tested using LanthaScreen™ Eu Kinase Binding Assay screening protocol.

ALK2, sequence (Q04771 21-509): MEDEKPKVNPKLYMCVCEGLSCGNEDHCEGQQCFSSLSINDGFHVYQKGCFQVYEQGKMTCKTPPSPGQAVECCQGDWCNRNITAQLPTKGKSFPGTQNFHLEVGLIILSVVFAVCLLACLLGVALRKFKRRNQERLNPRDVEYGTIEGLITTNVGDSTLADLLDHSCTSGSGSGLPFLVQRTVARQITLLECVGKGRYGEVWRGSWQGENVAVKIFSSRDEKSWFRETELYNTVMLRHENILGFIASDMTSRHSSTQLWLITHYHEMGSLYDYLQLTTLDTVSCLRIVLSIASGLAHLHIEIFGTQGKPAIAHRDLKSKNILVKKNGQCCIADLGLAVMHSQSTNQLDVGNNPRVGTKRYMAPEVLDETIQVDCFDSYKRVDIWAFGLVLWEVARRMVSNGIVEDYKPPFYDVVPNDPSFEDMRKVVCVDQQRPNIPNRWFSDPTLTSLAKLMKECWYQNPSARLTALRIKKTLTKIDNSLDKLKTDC

Row | IC50 | Structure (SMILES)
1 | < 100 nM | COc1cc(-n2cnc(Nc3nc4c(c(N5CCC[C@H]5CO)n3)CCN(Cc3cccc(C#N)c3)C4)c2)cc(OC)c1OC [Compound 220a, (S)-3-((4-(2-(hydroxymethyl)pyrrolidin-1-yl)-2-((1-(3,4,5-trimethoxyphenyl)-1H-imidazol-4-yl)amino)-5,6-dihydropyrido[3,4-d]pyrimidin-7(8H)-yl)methyl)benzonitrile]
2 | < 100 nM | COc1cc2nc(Nc3cn(-c4cc(OC)c(OC)c(OC)c4)cn3)nc(N3CCC[C@H]3CO)c2cc1OC [Compound 221c, (S)-(1-(6,7-dimethoxy-2-((1-(3,4,5-trimethoxyphenyl)-1H-imidazol-4-yl)amino)quinazolin-4-yl)pyrrolidin-2-yl)methanol]
3 | < 100 nM | COc1cc(-n2cnc(Nc3nc(N4CCC[C@H]4C(C)(C)O)c4cccn4n3)c2)cc(OC)c1OC [Compound 222b, (S)-2-(1-(2-((1-(3,4,5-trimethoxyphenyl)-1H-imidazol-4-yl)amino)pyrrolo[2,1-f][1,2,4]triazin-4-yl)pyrrolidin-2-yl)propan-2-ol]
4 | < 100 nM | COc1cc(-n2cnc(Nc3nc(N4CC(F)(F)C[C@H]4CO)c4cccn4n3)c2)cc(OC)c1OC [Compound 223b, (S)-(4,4-difluoro-1-(2-((1-(3,4,5-trimethoxyphenyl)-1H-imidazol-4-yl)amino)pyrrolo[2,1-f][1,2,4]triazin-4-yl)pyrrolidin-2-yl)methanol]
5 | < 100 nM | COc1cc(-n2cnc(Nc3nc4c(c(N5CCCC5)n3)CN(Cc3ccccc3)CC4)c2)cc(OC)c1OC [Compound 224b, 6-benzyl-4-(pyrrolidin-1-yl)-N-(1-(3,4,5-trimethoxyphenyl)-1H-imidazol-4-yl)-5,6,7,8-tetrahydropyrido[4,3-d]pyrimidin-2-amine]
6 | < 100 nM | COc1cc(-n2cnc(Nc3nc4c(c(N5CCCC5)n3)CCN(Cc3ccccc3)C4)c2)cc(OC)c1OC [Compound 225b, 7-benzyl-4-(pyrrolidin-1-yl)-N-(1-(3,4,5-trimethoxyphenyl)-1H-imidazol-4-yl)-5,6,7,8-tetrahydropyrido[3,4-d]pyrimidin-2-amine]
7 | < 100 nM | COc1cc(-n2cnc(Nc3nc4c(c(N5CCC[C@H]5CO)n3)CCCC4)c2)cc(OC)c1OC [Compound 226c, (S)-(1-(2-((1-(3,4,5-trimethoxyphenyl)-1H-imidazol-4-yl)amino)-5,6,7,8-tetrahydroquinazolin-4-yl)pyrrolidin-2-yl)methanol]
8 | 100 to 1000 nM | COc1cc(-n2cnc(Nc3nc(N4CCC[C@@H]4CO)c4cccn4n3)c2)cc(OC)c1OC [Compound 227b, (R)-(1-(2-((1-(3,4,5-trimethoxyphenyl)-1H-imidazol-4-yl)amino)pyrrolo[2,1-f][1,2,4]triazin-4-yl)pyrrolidin-2-yl)methanol]
9 | 100 to 1000 nM | COc1cncc(-n2cnc(Nc3nc(N4CCC[C@H]4CO)c4cccn4n3)c2)c1 [Compound 228d, (S)-(1-(2-((1-(5-methoxypyridin-3-yl)-1H-imidazol-4-yl)amino)pyrrolo[2,1-f][1,2,4]triazin-4-yl)pyrrolidin-2-yl)methanol]
10 | 100 to 1000 nM | COc1ccc(-n2cnc(Nc3nc(N4CCC[C@H]4CO)c4cccn4n3)c2)cc1C(F)(F)F [Compound 229d, (S)-(1-(2-((1-(4-methoxy-3-(trifluoromethyl)phenyl)-1H-imidazol-4-yl)amino)pyrrolo[2,1-f][1,2,4]triazin-4-yl)pyrrolidin-2-yl)methanol]
11 | > 1000 nM | COc1cc(-n2cnc(Nc3nc(N4CCC[C@H]4C(N)=O)c4cccn4n3)c2)cc(C(N)=O)c1OC [Compound 230f, (S)-1-(2-((1-(3-carbamoyl-4,5-dimethoxyphenyl)-1H-imidazol-4-yl)amino)pyrrolo[2,1-f][1,2,4]triazin-4-yl)pyrrolidine-2-carboxamide]
12 | 100 to 1000 nM | COc1cc(-n2cnc(Nc3nc(N4CCC[C@H]4CO)c4cccn4n3)c2)cc(C(N)=O)c1OC [Compound 231a, (S)-5-(4-((4-(2-(hydroxymethyl)pyrrolidin-1-yl)pyrrolo[2,1-f][1,2,4]triazin-2-yl)amino)-1H-imidazol-1-yl)-2,3-dimethoxybenzamide]

From patent US11661426B2, “Imidazole-containing inhibitors of ALK2 kinase” (BioCryst Pharmaceuticals, Inc., priority 2017, dated 2023)
